Measurements taken from PMC12377202, “Design, synthesis, and cytotoxic evaluation of quinazoline-based derivatives as VEGER-2 inhibitors: comparative study against EGFR kinase activity, induction of apoptosis, and molecular docking study” (RSC Advances, 2025).

Experiments:
Assay type in all cases: cell-based, human
MCF-7 = assay: MTT anti-proliferative assay, MCF-7; details: Homo sapiens, MCF7; for viability at 0.195 µmol / cytotoxicity at 0.195 µmol: MCF-7, 0.195 umol; for cytotoxicity at 0.195 µmol / cytotoxicity at 0.391 µmol / cytotoxicity at 0.781 µmol / cytotoxicity at 1.563 µmol / cytotoxicity at 3.125 µmol / cytotoxicity at 6.25 µmol / cytotoxicity at 12.5 µmol / cytotoxicity at 25 µmol: read-out: Toxicity %; for viability at 0.391 µmol / cytotoxicity at 0.391 µmol: MCF-7, 0.391 umol; for viability at 0.781 µmol / cytotoxicity at 0.781 µmol: MCF-7, 0.781 umol; for viability at 1.563 µmol / cytotoxicity at 1.563 µmol: MCF-7, 1.563 umol; for viability at 3.125 µmol / cytotoxicity at 3.125 µmol: MCF-7, 3.125 umol; for viability at 6.25 µmol / cytotoxicity at 6.25 µmol: MCF-7, 6.25 umol; for viability at 12.5 µmol / cytotoxicity at 12.5 µmol: MCF-7, 12.5 umol; for viability at 25 µmol / cytotoxicity at 25 µmol: MCF-7, 25 umol; for IC50: MTT, MCF-7, read-out: Cytotoxicity against cancer cells IC50 MCF-7
HepG-2 = assay: MTT anti-proliferative assay, HepG-2; details: Homo sapiens, HepG2; for viability at 0.195 µg/mL / cytotoxicity at 0.195 µg/mL: HepG-2, 0.195 ug/ml; for cytotoxicity at 0.195 µg/mL / cytotoxicity at 0.391 µg/mL / cytotoxicity at 0.781 µg/mL / cytotoxicity at 1.563 µg/mL / cytotoxicity at 3.125 µg/mL / cytotoxicity at 6.25 µg/mL / cytotoxicity at 12.5 µg/mL / cytotoxicity at 25 µg/mL: read-out: Toxicity %; for viability at 0.391 µg/mL / cytotoxicity at 0.391 µg/mL: HepG-2, 0.391 ug/ml; for viability at 0.781 µg/mL / cytotoxicity at 0.781 µg/mL: HepG-2, 0.781 ug/ml; for viability at 1.563 µg/mL / cytotoxicity at 1.563 µg/mL: HepG-2, 1.563 ug/ml; for viability at 3.125 µg/mL / cytotoxicity at 3.125 µg/mL: HepG-2, 3.125 ug/ml; for viability at 6.25 µg/mL / cytotoxicity at 6.25 µg/mL: HepG-2, 6.25 ug/ml; for viability at 12.5 µg/mL / cytotoxicity at 12.5 µg/mL: HepG-2, 12.5 ug/ml; for viability at 25 µg/mL / cytotoxicity at 25 µg/mL: HepG-2, 25 ug/ml; for IC50: MTT, HepG-2, read-out: Cytotoxicity against cancer cells IC50 HepG-2
K-562 = assay: MTT anti-proliferative assay, K-562; details: Homo sapiens, K562; for viability at 0.195 µmol / cytotoxicity at 0.195 µmol: K-562, 0.195 umol; for cytotoxicity at 0.195 µmol / cytotoxicity at 0.391 µmol / cytotoxicity at 0.781 µmol / cytotoxicity at 1.563 µmol / cytotoxicity at 3.125 µmol / cytotoxicity at 6.25 µmol / cytotoxicity at 12.5 µmol / cytotoxicity at 25 µmol: read-out: Toxicity %; for viability at 0.391 µmol / cytotoxicity at 0.391 µmol: K-562, 0.391 umol; for viability at 0.781 µmol / cytotoxicity at 0.781 µmol: K-562, 0.781 umol; for viability at 1.563 µmol / cytotoxicity at 1.563 µmol: K-562, 1.563 umol; for viability at 3.125 µmol / cytotoxicity at 3.125 µmol: K-562, 3.125 umol; for viability at 6.25 µmol / cytotoxicity at 6.25 µmol: K-562, 6.25 umol; for viability at 12.5 µmol / cytotoxicity at 12.5 µmol: K-562, 12.5 umol; for viability at 25 µmol / cytotoxicity at 25 µmol: K-562, 25 umol; for IC50: MTT, K-562, read-out: Cytotoxicity against cancer cells IC50 K-562
caspase-3 = assay: Caspase-3 expression level in HepG-2 cells; details: for Caspase-3 ± SE: HepG-2, at IC50 concentrations, control 0.460; for caspase-3 expression level, fold increase: HepG-2, vs control cells
Procedure: (§1) All synthesized compounds were tested at their cytotoxic concentrations in HepG-2 cells for analysis of gene expression levels of apoptotic markers caspase-3, caspase-9, TNF-α, and IL-6 proteins, and only two active compounds were tested for BAX and Bcl-2 proteins.
(§2) through Flow cytometric analysis.
(§3) Pellets were collected again and incubated with
(§4) Total RNA from vehicle-treated
(§5) (Thermo Scientific, USA).
(§6) All experiments were performed in […]

caspase-9 = assay: Caspase-9 expression level in HepG-2 cells; details: for Caspase-9 ± SE: HepG-2, at IC50 concentrations, control 11.01; for caspase-9 expression level, fold increase: HepG-2, vs control cells
Procedure: as §1, §2, §3, §4, §5, §6

TNF-alpha = TNF-alpha level in HepG-2 cells; details: control 43.48
Procedure: as §1, §2, §3, §4, §5, §6

IL-6R = IL-6R level in HepG-2 cells; details: control 44.10; for IL-6R ± SE: HepG-2, at IC50 concentrations; for IL-6 ±SE: raw data, HepG2
Procedure: as §1, §2, §3, §4, §5, §6

SMILES: O=C(Cn1cnc2cc([N+](=O)[O-])ccc2c1=O)Nc1ccc(Cl)cc1 [9c, N-(4-Chlorophenyl)-2-(7-nitro-4-oxoquinazolin-3(4H)-yl)acetamide]
- viability at 0.195 µmol (MCF-7): 91.3%
- cytotoxicity at 0.195 µmol (MCF-7): 8.66%
- viability at 0.391 µmol (MCF-7): 68.1%
- cytotoxicity at 0.391 µmol (MCF-7): 31.9%
- viability at 0.781 µmol (MCF-7): 43%
- cytotoxicity at 0.781 µmol (MCF-7): 57%
- viability at 1.563 µmol (MCF-7): 27.7%
- cytotoxicity at 1.563 µmol (MCF-7): 72.3%
- viability at 3.125 µmol (MCF-7): 15.2%
- cytotoxicity at 3.125 µmol (MCF-7): 84.8%
- viability at 6.25 µmol (MCF-7): 11.2%
- cytotoxicity at 6.25 µmol (MCF-7): 88.8%
- viability at 12.5 µmol (MCF-7): 8.44%
- cytotoxicity at 12.5 µmol (MCF-7): 91.6%
- viability at 25 µmol (MCF-7): 6.82%
- cytotoxicity at 25 µmol (MCF-7): 93.2%
- IC50 (MCF-7): 672.4 ± 4.9 nM
- viability at 0.195 µg/mL (HepG-2): 83.4%
- cytotoxicity at 0.195 µg/mL (HepG-2): 16.6%
- viability at 0.391 µg/mL (HepG-2): 70.3%
- cytotoxicity at 0.391 µg/mL (HepG-2): 29.7%
- viability at 0.781 µg/mL (HepG-2): 56.1%
- cytotoxicity at 0.781 µg/mL (HepG-2): 43.9%
- viability at 1.563 µg/mL (HepG-2): 34.4%
- cytotoxicity at 1.563 µg/mL (HepG-2): 65.6%
- viability at 3.125 µg/mL (HepG-2): 16.8%
- cytotoxicity at 3.125 µg/mL (HepG-2): 83.2%
- viability at 6.25 µg/mL (HepG-2): 11.7%
- cytotoxicity at 6.25 µg/mL (HepG-2): 88.3%
- viability at 12.5 µg/mL (HepG-2): 7.36%
- cytotoxicity at 12.5 µg/mL (HepG-2): 92.6%
- viability at 25 µg/mL (HepG-2): 6.23%
- cytotoxicity at 25 µg/mL (HepG-2): 93.8%
- IC50 (HepG-2): 1000 ± 4.9 nM
- viability at 0.195 µmol (K-562): 80.6%
- cytotoxicity at 0.195 µmol (K-562): 19.4%
- viability at 0.391 µmol (K-562): 60%
- cytotoxicity at 0.391 µmol (K-562): 40%
- viability at 0.781 µmol (K-562): 33.6%
- cytotoxicity at 0.781 µmol (K-562): 66.4%
- viability at 1.563 µmol (K-562): 22.3%
- cytotoxicity at 1.563 µmol (K-562): 77.7%
- viability at 3.125 µmol (K-562): 11%
- cytotoxicity at 3.125 µmol (K-562): 89%
- viability at 6.25 µmol (K-562): 8.29%
- cytotoxicity at 6.25 µmol (K-562): 91.7%
- viability at 12.5 µmol (K-562): 7.43%
- cytotoxicity at 12.5 µmol (K-562): 92.6%
- viability at 25 µmol (K-562): 7.02%
- cytotoxicity at 25 µmol (K-562): 93%
- IC50 (K-562): 538.8 ± 1.7 nM
- Caspase-3 ± SE (caspase-3): 1.77 ± 0.08 ng/mL
- Caspase-3 ± SE (caspase-3; listed as N2): 1.77 ng/mL
- caspase-3 expression level, fold increase (caspase-3): 3.85 fold
- Caspase-9 ± SE (caspase-9): 70.03 ± 0.47 ng/L
- Caspase-9 ± SE (caspase-9; listed as N2): 70.03 ng/L
- caspase-9 expression level, fold increase (caspase-9): 6.37 fold
- TNF-alpha ±SE (TNF-alpha; HepG-2, at IC50 concentrations): 16.86 ± 2.39 ng/L
- TNF-alpha ±SE (TNF-alpha; raw data, HepG2): 23.47 ng/L
- IL-6R ± SE (IL-6R): 11.87 ± 0.80 ng/L
- IL-6 ±SE (IL-6R): 24.59 ng/L

SMILES: O=C(Cn1cnc2cc([N+](=O)[O-])ccc2c1=O)Nc1ccc(F)c(Cl)c1 [9e, N-(3-Chloro-4-fluorophenyl)-2-(7-nitro-4-oxoquinazolin-3(4H)-yl)acetamide]
- viability at 0.195 µmol (MCF-7): 54.8%
- cytotoxicity at 0.195 µmol (MCF-7): 45.2%
- viability at 0.391 µmol (MCF-7): 29.1%
- cytotoxicity at 0.391 µmol (MCF-7): 70.9%
- viability at 0.781 µmol (MCF-7): 20.9%
- cytotoxicity at 0.781 µmol (MCF-7): 79.1%
- viability at 1.563 µmol (MCF-7): 13.7%
- cytotoxicity at 1.563 µmol (MCF-7): 86.3%
- viability at 3.125 µmol (MCF-7): 9.89%
- cytotoxicity at 3.125 µmol (MCF-7): 90.1%
- viability at 6.25 µmol (MCF-7): 9.23%
- cytotoxicity at 6.25 µmol (MCF-7): 90.8%
- viability at 12.5 µmol (MCF-7): 8.22%
- cytotoxicity at 12.5 µmol (MCF-7): 91.8%
- viability at 25 µmol (MCF-7): 6.51%
- cytotoxicity at 25 µmol (MCF-7): 93.5%
- IC50 (MCF-7): 231.4 ± 2.3 nM
- viability at 0.195 µg/mL (HepG-2): 87.5%
- cytotoxicity at 0.195 µg/mL (HepG-2): 12.5%
- viability at 0.391 µg/mL (HepG-2): 63.9%
- cytotoxicity at 0.391 µg/mL (HepG-2): 36.1%
- viability at 0.781 µg/mL (HepG-2): 55.2%
- cytotoxicity at 0.781 µg/mL (HepG-2): 44.8%
- viability at 1.563 µg/mL (HepG-2): 49.6%
- cytotoxicity at 1.563 µg/mL (HepG-2): 50.4%
- viability at 3.125 µg/mL (HepG-2): 25.9%
- cytotoxicity at 3.125 µg/mL (HepG-2): 74.1%
- viability at 6.25 µg/mL (HepG-2): 16.3%
- cytotoxicity at 6.25 µg/mL (HepG-2): 83.7%
- viability at 12.5 µg/mL (HepG-2): 8.39%
- cytotoxicity at 12.5 µg/mL (HepG-2): 91.6%
- viability at 25 µg/mL (HepG-2): 6.85%
- cytotoxicity at 25 µg/mL (HepG-2): 93.2%
- IC50 (HepG-2): 1510 ± 2 nM
- viability at 0.195 µmol (K-562): 60.6%
- cytotoxicity at 0.195 µmol (K-562): 39.4%
- viability at 0.391 µmol (K-562): 47%
- cytotoxicity at 0.391 µmol (K-562): 53%
- viability at 0.781 µmol (K-562): 26.6%
- cytotoxicity at 0.781 µmol (K-562): 73.4%
- viability at 1.563 µmol (K-562): 19%
- cytotoxicity at 1.563 µmol (K-562): 81%
- viability at 3.125 µmol (K-562): 13.7%
- cytotoxicity at 3.125 µmol (K-562): 86.3%
- viability at 6.25 µmol (K-562): 10.8%
- cytotoxicity at 6.25 µmol (K-562): 89.2%
- viability at 12.5 µmol (K-562): 8.13%
- cytotoxicity at 12.5 µmol (K-562): 91.9%
- viability at 25 µmol (K-562): 6.53%
- cytotoxicity at 25 µmol (K-562): 93.5%
- IC50 (K-562): 346.9 ± 2.9 nM
- Caspase-3 ± SE (caspase-3): 0.77 ± 0.069 ng/mL
- Caspase-3 ± SE (caspase-3; listed as N4): 0.77 ng/mL
- caspase-3 expression level, fold increase (caspase-3): 1.6 fold
- Caspase-9 ± SE (caspase-9): 25.20 ± 1.27 ng/L
- Caspase-9 ± SE (caspase-9; listed as N4): 25.20 ng/L
- caspase-9 expression level, fold increase (caspase-9): 2.29 fold
- TNF-alpha ±SE (TNF-alpha; HepG-2, at IC50 concentrations): 34.27 ± 1.94 ng/L
- TNF-alpha ±SE (TNF-alpha; raw data, HepG2): 32.07 ng/L
- IL-6R ± SE (IL-6R): 25.25 ± 0.16 ng/L
- IL-6 ±SE (IL-6R): 11.93 ng/L
